These results are taken from US20260337125A1, “RADIOLABELED TYROSINE DERIVATIVE AND APPLICATION THEREOF” (Osaka University, priority 2022, published 2026).

A short description of data set [1]: TLC analysis of stability after purification. The data set is classed as physicochemical. To be noted: 24 hours after purification, in sodium ascorbate aqueous solution (final concentration 1%). As to the method: The crude product solution (1 μL) was analyzed by thin-layer chromatography (TLC). The sample was spotted on a thin-layer plate (silica gel 60F254), and a mixed solvent of acetonitrile/water (2/1) was used as a developing solvent. The thin-layer plate was exposed to an imaging plate (BAS IP MS 2025E, GE Healthcare) for about 15 min, and then analyzed by a bioimage analyzer (Tyhoon™ FLA-7000, Cytiva). The results are shown in FIG. 2. ^211At-AAMT-OMe in the crude product solution was detected at Rf 0.80, and the radiochemical yield (RCY) was 81.3%.
(§1) The crude product solution was injected into an HLB column (Oasis, WAT-186005125) equilibrated with sterile distilled water (1 mL) to capture the target product in the cartridge, and sterile distilled water was passed through the cartridge to elute impurities. Next, 30% ethanol solution (500 μL) was passed through the cartridge to elute the target product into sodium ascorbate aqueous solution (500 μL, final concentration 1%), thus obtaining the purified product. The radiochemical yield and radiochemical purity of the purified product were 81% and 98%, respectively.
Before purification, immediately after production, 3 hours after production, and 24 hours after production, ^211At-AAMT-OMe was analyzed by thin-layer chromatography (TLC) in the same manner as described above.
as §1, with “product. This purified product was analyzed by thin-layer chromatography (TLC) in the same manner as described above.” for “product.”, “79.6%” for “81%”, “99.9%,” for “98%,”
24 hours after production, (R)-^211At-AAMT-OMe was analyzed by thin-layer chromatography (TLC) in the same manner as described above.
as §1, with “product. This purified product was analyzed by thin-layer chromatography (TLC) in the same manner as described above.” for “product.”, “75.9%” for “81%”, “99.27%,” for “98%,”
24 hours after production, ^211At-AAMT-OEt was analyzed by thin-layer chromatography (TLC) in the same manner as described above.
The crude product solution was injected into an HLB column (Oasis, WAT-186005125) equilibrated with sterile distilled water (1 mL) to capture the target product in the cartridge, and sterile distilled water was passed through the cartridge to elute impurities. […] This purified product was analyzed by thin-layer chromatography (TLC) in the same manner as described above. […]
24 hours after production, ^211At-AAMT-OPr was analyzed by thin-layer chromatography (TLC) in the same manner as described above. […]

In data set [2] the test system is human pancreatic cancer cell line (PANC1). The experiment in a line: Therapeutic test on PANC1 subcutaneously transplanted mice (28 days). The data set is classed as in vivo, human (PANC1) in Balb/c-nu/nu mice. The settings on record: 1 MBq/0.2 mL per mouse, tail vein. The text has this: Twenty-eight days after administration, the mice were euthanized and subjected to autopsy, and tumor masses were isolated after organs were examined for abnormalities.

Data set [3] can be described thus: Measurement of accumulated amounts of 211At-labeled compounds in PANC1 tumor-bearing mice. To be noted: tumor, iv, 0.1 MBq/animal, 0.1 MBq/0.2 mL per mouse, tail vein, read-out: tumor accumulation. It counts as in vivo, human (PANC1) in Balb/c-nu/nu mice. As to the method: (§2) Radiation doses before and after the administration were measured, and a difference between them was defined as an injected dose (ID). Ten minutes and one hour after administration, the mice were anesthetized by isoflurane inhalation, the tumors were isolated by autopsy in chronological order, and their radiation doses and weights were measured using a gamma counter (2480 Wizard^2, PerkinElmer) and a semimicro scale (Shimadzu Corporation, readability 10 μg), respectively. For comparison between accumulated amounts, accumulated amounts per unit amount (% ID/g) were calculated.
(§3) In Table 1, the amounts of the ^211At-labeled compounds accumulated in tumors of the PANC1 tumor-bearing models (% ID/g) are shown. It should be noted that in Table 1, “OMe” is ^211At-AAMT-OMe, “OEt” is ^211At-AAMT-OEt, “OPr” is ^211At-AAMT-OPr, and “OH” is ^211At-AAMT.

The subject of data set [4] is PANC1 tumor. Described as above. It counts as in vivo, human (PANC1) in Balb/c-nu/nu mice. The procedure:
as §2, §3

Data set [5] has as its system human pancreatic cancer cell line (PANC1). The data set is classed as in vivo, human (PANC1) in Balb/c-nu/nu mice. The settings on record: 1 MBq/0.2 mL per mouse, tail vein. The source says:
The experiment was terminated 21 days after administration.

Read-outs that look alike come from different tables or passages of the source.

Take `COc1ccc(C[C@](C)(N)C(=O)O)cc1[At]` [^211At-AAMT-OMe, (S)-3-astato(^211At)-O-methyl-α-methyltyrosine]: in data set [1], the “decomposition by TLC” value is recorded as “no decomposition”. In data set [2] (28 days after administration), the anti-tumor effect entry is reported as “slightly higher than that of ^211At-AAMT” and the tumor size entry is “slightly smaller than that of the ^211At-AAMT administration group”. The mouse body weight entry in data set [2] (up to 28 days after administration) was “tends to slightly reduce, but the body weight reduction is significantly smaller than that of the control group, and is therefore not at a level regarded as a side effect”. For the same compound, the tissue uptake at 10 min in data set [3] (10 minutes after administration) came to 2.59 %ID/g. For the same compound, the tissue uptake at 1 h in data set [3] (1 hour after administration) came out at 3.78 %ID/g. Also, the “accumulation in the tumor sites compared to 211At-AAMT” value in data set [4] (10 minutes and 1 hour after administration, tail vein) is on record as “more highly accumulated in the tumor sites than ^211At-AAMT”. Also, the “retention at tumor sites” value in data set [4] (compared to 211At-AAMT) is “superior retention at tumor sites compared to ^211At-AAMT”. Besides, in data set [5] (21 days), the apparent toxicity entry is “apparent toxicity induced by their administration was not observed” and the “lesions other than tumor at autopsy” value is listed as “lesions other than tumor were not observed”. Besides, the mouse body weight entry in data set [5] (up to 21 days after administration) is “gently increased”.
